The results in this text go back to PubChem BioAssay (NCI).

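How tested: cells in 96-well plates exposed to compound for 48 hours at five concentrations. At the GI50, growth is halved. TGI is the concentration that stops growth completely.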

Holding throughout (experiment): growth of human tumour cells (NCI), 48 h
Test [1] relates to TK-10 renal.
The subject of test [2] is A549 NSCLC.
For test [3], the system named is SF-539 CNS.
For test [4], the system named is ACHN renal.
Test [5] has as its system MDA-MB-231 breast.
The subject of test [6] is T-47D breast.
Test [7] relates to CCRF-CEM leukemia.
The test system of test [8] is RPMI-8226 leukemia.
Test [9] relates to SK-MEL-28 melanoma.
The subject of test [10] is EKVX NSCLC.

Regarding `COc1ccc(-c2nc(Nc3cc(C)[nH]n3)c3ccccc3n2)cc1`, the GI50 in test [1] is 0.865 µM; in test [2], 2.33 µM; in [3], 1.47 µM; in test [4], 0.801 µM; in test [5] it was 4.21 µM; in test [6] it was 1.59 µM. In addition, the GI50 in test [7] is 5.18 µM; in test [8], 4.16 µM; in test [9], 5.12 µM. Besides, the TGI is 8.11 µM in [1]; 44.9 µM in [2]; 4.15 µM in test [3]; above 100 µM in test [4]; above 100 µM in test [5]; above 25.6 µM in test [6]. Besides, the TGI in test [7] is 66.2 µM; in test [8], 28.6 µM; in test [9], above 100 µM.
With `CO[C@H]1CC(O[C@@H]2/C(C)=C/C[C@@H]3C[C@@H](C[C@]4(C=C[C@H](C)[C@@H](C5CCCCC5)O4)O3)OC(=O)[C@@H]3C=C(C)[C@@H](O)[C@H]4OC/C(=C\C=C\[C@@H]2C)[C@]43O)O[C@@H](C)C1O[C@H]1C[C@H](OC)[C@@H](O)[C@H](C)O1` (stereo not given in full), the GI50 is 1.84 µM in [1]; 1.66 µM in test [4]; 1.65 µM in test [6]; 1.88 µM in [7]; 1.39 µM in [8]; 1.58 µM in [9]. Besides, the TGI in test [1] was 3.51 µM; in [4] it was 3.04 µM; in test [6], 3.43 µM; in [7] it was 4.4 µM; in test [8] it was 4.38 µM; in test [9], 3.03 µM.
Turning to `COc1cc(N2C(=O)[C@H](O)C2c2ccc(SC)cc2)cc(OC)c1OC` (stereo not given in full), the GI50 is 23.2 µM in test [1]; 0.0131 µM in test [2]; below 0.01 µM in test [3]; below 0.01 µM in test [4]; 0.0235 µM in test [5]; below 0.01 µM in test [10]. The GI50 in [7] and in [8] was below 0.01 µM each time. Also, the TGI is above 100 µM in test [1]; above 100 µM in test [2]; 60.5 µM in test [4]; above 100 µM in [5]; above 100 µM in test [10]; above 100 µM in test [7]. The same molecule came in with a TGI in [8] of 14.6 µM.
For `FC(F)(F)c1ccc(-c2cnc(-c3ncon3)nc2NC2CCCCCC2)cc1`, the GI50 in test [1] is above 100 µM; in [2], 38 µM; in [3], above 100 µM; in [4], 48.6 µM; in test [5] it was 22.5 µM; in [6], 25.6 µM. For the same molecule, the GI50 is 22.9 µM in [7], 18.4 µM in [8] and 99.2 µM in [9]. In addition, the TGI in test [1] was above 100 µM; in [2], above 100 µM; in test [3] it was above 100 µM; in test [4] it was above 100 µM; in [5], 89 µM; in test [6], 87.3 µM. Moreover, the TGI in test [7] was 60.4 µM; in test [8], 49.3 µM; in [9], above 100 µM.
Take `CNCCCNCCCCNCCCN1C(=O)c2ccc3c4c(ccc(c24)C1=O)C(=O)N(CCCNCc1ccccc1OC)C3=O`: the GI50 in [1] is 4.08 µM; in [2], 3.45 µM; in test [3], 2.04 µM; in [4] it was 2.86 µM; in test [5] it was 4.63 µM; in test [6], 0.342 µM. The GI50 was 3.77 µM in [7], 3 µM in test [8] and 1.4 µM in test [9]. In addition, the TGI in test [1] worked out at 43.5 µM; in test [2], 20.2 µM; in test [3] it was 6.82 µM; in test [4], 30.1 µM; in test [5], 70.2 µM; in [6] it was 5.97 µM. The TGI was 39 µM in test [7], 22.8 µM in test [8] and 10.1 µM in test [9].
Turning to `O=C(/C=C\c1cccc([N+](=O)[O-])c1)/C=C/c1cccc([N+](=O)[O-])c1`, the GI50 is 2.97 µM in test [1]; 3.21 µM in test [2]; 7.89 µM in [3]; 4.47 µM in test [4]; 14.4 µM in test [5]; above 100 µM in [10]. Moreover, the figures for the GI50 in test [6], in [8] and in [9] were above 100 µM, 0.43 µM and above 100 µM, respectively. Besides, the TGI in test [1] was 8.7 µM; in test [2], 12.2 µM; in test [3], above 100 µM; in test [4], above 100 µM; in [5] it was above 100 µM; in test [10], above 100 µM. Also, the TGI in [6] is above 100 µM; in [8], 1.6 µM; in test [9], above 100 µM.
As for `O=C1c2c(c3c4ccccc4[nH]c3c3ccc4ccccc4c23)C(=O)N1CCN1CCNCC1`, the GI50 in test [1] is 1.77 µM; in test [2] it was 1.16 µM; in test [3], 1.68 µM; in test [4] it was 1.56 µM; in [5], 1.72 µM; in [10] it was 1.59 µM. In addition, the values for the GI50 in [7], in test [8] and in test [9] were 1.33 µM, 1.81 µM and 1.68 µM, respectively. The TGI stood at 3.24 µM in [1]; 2.64 µM in [2]; 3.06 µM in test [3]; 2.9 µM in test [4]; 3.27 µM in test [5]; 3.15 µM in test [10]. Moreover, the TGI is 4.22 µM in [7], 4.1 µM in [8] and 3.1 µM in test [9].
Turning to `O=C(Nc1ccc(OCc2nnc(-c3ccc(Cl)cc3)o2)c(F)c1)Nc1ccc(Cl)c(C(F)(F)F)c1`, the GI50 is 3.72 µM in test [1]; 2.65 µM in test [2]; 1.91 µM in [3]; 2.11 µM in test [4]; 2.35 µM in test [5]; 2.64 µM in [10]. The values for the GI50 in [6], in test [8] and in test [9] were 2.21 µM, 1.82 µM and 3.02 µM, respectively. The TGI amounted to 17 µM in test [1]; 11.7 µM in [2]; 4.34 µM in [3]; 8.52 µM in test [4]; 7.64 µM in test [5]; 10.4 µM in test [10]. The results for the TGI in test [6], in test [8] and in test [9] were 8.66 µM, 8.09 µM and 13.5 µM, respectively.
